Test results reported in patent US20090209620A1, “Direct Reversal Of The Suppressive Function Of CD4+Regulatory T Cells Via Toll-Like Receptor 8 Signaling” (priority 2005, published 2009).
Entries after “also recorded” stand apart in the source; their conditions may differ. In the oligonucleotide strings, read from the 5' end, every base follows the letter of its sugar. An asterisk marks phosphorothioate; unmarked linkages are phosphodiester. Other units and linkages are bracketed, terminal groups are in braces. A string of capitals states the bases alone. d = 2'-deoxy (DNA)

Key:
[1] = test system: Treg102 cells; experiment: Proliferation and cytotoxicity of CFSE-labeled Treg cells (FACS); format: cell-based, human; details: 3 days
Procedure: The expression of CD4, CD25 and GITR on Treg cells was determined by FACS analysis after staining with specific antibodies (purchased from R&D Systems and BD Biosciences). To isolate naturally occurring CD4^+ CD25^+ Treg cells, CD4^+ T cells were stained with anti-CD4 and anti-CD25 antibodies conjugated to either PE or FITC. After washing, the cells were sorted by FACSARIA into CD4^+ CD25^+ and CD4^+ CD25^− T cell populations. For experiments with carboxyfluorescein diacetate succinimidyl ester (CFSE)-labeled cells, näive CD4^+ T cells or Treg cells ([…]) were stained with CFSE (4.5 uM) from Molecular Probes at 37° C. for 15 min. After several washes, the labeled cells were cultured in RPMI 1640 containing 10% human AB serum and IL-2 (300 IU/ml). To determine suppression of cell division by Treg cells, unlabeled Treg cells were added to CFSE-labeled näive T cells at an 1:1 ratio in 24-well plates precoated with OKT3 (2 ug/ml) in the presence or absence of CpG-A or Poly-G2 (3 ug/ml). After 3 days in culture, the cells were analyzed by FACS gating on the CFSE-labeled cells.
FIG. 5. […] After 3 days of culture, the proliferative profile was determined by FACS analysis. […]

[2] = test system: 586mel human tumor cells; experiment: Human 586mel tumor model in Rag1-/- mice with adoptive transfer of TIL586 and Treg102 cells; format: in vivo; details: 586mel s.c. day 0; CD8+ TIL586 plus Treg102 cells with oligonucleotide on day 3; n=6 mice per group
Procedure: Human 586mel tumor cells (5×106) in 100 μl of buffered saline were subcutaneously injected into Rag1^−/− mice (lacking T and B cells) or Rag 2 ^−/− γC ^−/− mice (lacking T, B and NK cells) on day 0. Tumor-specific CD8^+ TIL586 cells (2.5×107), which recognize and kill 586mel cells, were injected intravenously on day 3 with or without Treg102 cells (3×106) pretreated with Poly-G10 or Poly-T10. Tumor size was measured with calipers every 2-3 days. Tumor volume was calculated on the basis of two-dimensioned measurements. Tumor growth curves were compared with the Wilcoxon rank-sum test.
The data in FIG. 4A-B confirms that TLR8 serves as a receptor for synthetic guanosine containing oligonucleotides and natural ssRNA40 and ssRNA33 ligands derived from HIV-1 virus, and that its activation in endosomes by synthetic DNA or ssRNA ligands triggers a signaling pathway that can reverse the suppressive function of Treg cells. To study the guanosine containing oligonucleotide induced reversal of Treg cell function in vivo, a human tumor model was established by subcutaneously injecting 586mel human tumor cells into Rag1^−/− (T and B cell deficient) mice. […] Tumor volumes were measured and presented as mean±SD (n=6 mice per group). P value was determined between groups as indicated. […]

Substance | number of Treg cells (cytotoxicity) ([1]; presence or absence of CpG-A 3 μg/ml) | proliferation of CFSE-labeled Treg cells ([1]; with naive T cells, OKT3, IL-2, CpG-A 3 μg/ml) | tumor growth / antitumor immunity [2]
G* GGGGACGATCGTCG* G*G*G*G*G [CpG-A] | did not change | do not proliferate | 
Poly-G10: guanosine oligonucleotide with protected phosphorothioate backbone (DNA dG*dG*dG*dG*dG*dG*dG*dG*dG*dG) |  |  | enhances antitumor immunity in vivo; also recorded: tumor growth was not detected during the first 42 days
